Experimental findings from patent publication US20240247015A1, “PHOSPHORUS DERIVATIVES AS NOVEL SOS1 INHIBITORS” (BAYER AKTIENGESELLSCHAFT, priority 2021, published 2024) are described below.

Chain of interaction of human SOS1 (SOS1) with human K-RasG12C (Q07889 564-1049 limits assumed): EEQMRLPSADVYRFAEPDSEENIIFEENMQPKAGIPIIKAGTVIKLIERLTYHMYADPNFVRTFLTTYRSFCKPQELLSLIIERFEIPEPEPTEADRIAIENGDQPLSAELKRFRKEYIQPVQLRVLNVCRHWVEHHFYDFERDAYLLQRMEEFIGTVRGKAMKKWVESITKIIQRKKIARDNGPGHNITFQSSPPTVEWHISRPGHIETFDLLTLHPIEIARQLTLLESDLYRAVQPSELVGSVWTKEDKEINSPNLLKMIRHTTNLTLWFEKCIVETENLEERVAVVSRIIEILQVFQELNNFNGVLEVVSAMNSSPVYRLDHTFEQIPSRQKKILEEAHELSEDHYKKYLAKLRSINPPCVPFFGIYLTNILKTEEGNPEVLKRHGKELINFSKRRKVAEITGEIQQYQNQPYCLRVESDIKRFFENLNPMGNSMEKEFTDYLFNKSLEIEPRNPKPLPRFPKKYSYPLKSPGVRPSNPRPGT

The assay has as its target interaction of human SOS1 (SOS1) with human K-RasG12C (Homo sapiens (Human), UniProt Q07889). The experiment in a line: Biochemical assay: hK-RasG12C interaction assay with hSOS1 (HTRF). The format is binding. To be noted: GST-hK-RasG12C with His-hSOS1, 60 min incubation at 20° C., mean, read-out: K-RasG12C - SOS interaction assay IC50 (mean). The procedure: Biochemical Assay: hK-RasG12C Interaction Assay with hSOS1 This assay quantifies the equilibrium interaction of human SOS1 (SOS1) with human K-Ras^G12^C (K-RasG12C). Detection of the interaction is achieved by measuring homogenous time-resolved fluorescence resonance energy transfer (HTRF) from antiGST-Europium (FRET donor) bound to GST-K-RasG12C to anti-6His-XL665 bound to His-tagged hSOS1 (FRET-acceptor). The assay buffer containes 5 mM HEPES pH 7.4 (Applichem), 150 mM NaCl (Sigma), […] (Promega), 1 mM DTT (Thermofisher), 0.05% BSA Fraction V, pH 7.0, (ICN Biomedicals), 0.0025% (v/v) Igepal (Sigma) and 100 mM KF (FLUKA). The expression and purification of N-terminally GST-tagged human K-RasG12C (termed GST-hK-RasG12C) and N-terminally His-tagged human SOS1 (termed His10-hSOS1) is described in WO 2019/201848, page 220 line 12-34 and page 222, line 13-25 (expression) and page 222, line 26 to page 223, line 17 (purification). Concentrations of protein batches used are optimized to be within the linear range of the HTRF signal. A Ras working solution is prepared in assay buffer containing typically 10 nM GST-hK-RasG12C and 2 nM antiGST-Eu(K) (Cisbio, France). A SOS1 working solution is prepared in assay buffer containing typically 20 nM His-hSOS1 and 10 nM anti-6His-XL665 (Cisbio, France). An inhibitor control solution is prepared in assay buffer containing nM anti-6His-XL665 without SOS1. Fifty nl of a 100-fold concentrated solution of the test compound in DMSO are transferred into a black microtiter test plate (384 or 1536, Greiner Bio-One, Germany). For this, either a Hummingbird liquid handler (Digilab, MA, USA) or an Echo acoustic system (Labcyte, CA, USA) is used. All steps of the assay are performed at 20° C. A volume of 2.5 μl of the Ras working solution is added to all wells of the test plate using a Multidrop dispenser (Thermo Labsystems). After 2 min preincubation, 2.5 μl of the SOS1 working solution are added to all wells except for those wells at the side of the test plate that are subsequently filled with 2.5 μl of the inhibitor control solution. After 60 min incubation the fluorescence is measured with a Pherastar (BMG, Germany) using the HTRF module (excitation 337 nm, emission 1: 620 nm, emission 2: 665 nm). The ratiometric data (emission 2 divided by emission 1) are normalized using the controls (DMSO=0% inhibition, inhibition control wells with inhibitor control solution=100% inhibition). Compounds are tested in duplicates at up to 11 concentrations (for 20 μM, 5,7 μM, 1,6 μM, 0.47 μM, 0.13 μM, 38 nM, 11 nM, 3.1 nM, 0.89 nM, 0.25 nM and 0.073 nM). IC50 values are calculated by 4-Parameter fitting using a commercial software package (Genedata Screener, Switzerland).
As for `CC(=O)N1CCP(=O)(c2cc3c(N[C@H](C)c4cccc(C(F)F)c4F)nc(C)nc3cn2)CC1` [Example 10, 1-acetyl-4-[4-({(1R)-1-[3-(difluoromethyl)-2-fluorophenyl]ethyl}amino)-2-methylpyrido[3,4-d]pyrimidin-6-yl]-1,4lambda^5-azaphosphinan-4-one], the IC50 was determined as 0.0078 µM.

For `Cc1nc(N[C@H](C)c2cccc(C(F)(F)C(C)(C)O)c2F)c2cc(P(C)(C)=O)nc(C)c2n1` [Example 11, 1-{3-[(1R)-1-{[6-(dimethylphosphoryl)-2,8-dimethylpyrido[3,4-d]pyrimidin-4-yl]amino}ethyl]-2-fluorophenyl}-1,1-difluoro-2-methylpropan-2-ol], the IC50 is 0.0529 µM.

As to `Cc1nc(N[C@H](C)c2cccc(C(F)(F)C(C)(C)O)c2F)c2cc(P(=O)(C(C)C)C(C)C)ncc2n1` [Example 12, 1-{3-[(1R)-1-({6-[di(propan-2-yl)phosphoryl]-2-methylpyrido[3,4-d]pyrimidin-4-yl}amino)ethyl]-2-fluorophenyl}-1,1-difluoro-2-methylpropan-2-ol], the IC50 came out at 0.0594 µM. The same measure for `Cc1nc(N[C@H](C)c2cccc(C(F)(F)F)c2C)c2cc(P(C)(C)=O)cnc2n1` [Example 13, 6-(dimethylphosphoryl)-2-methyl-N-{(1R)-1-[2-methyl-3-(trifluoromethyl)phenyl]ethyl}pyrido[2,3-d]pyrimidin-4-amine]: 0.0163 µM.

Consider `Cc1nc(N[C@H](C)c2cccc(C(F)(F)C(C)(C)O)c2F)c2cc(P(C)(C)=O)cnc2n1` [Example 14, 1-{3-[(1R)-1-{[6-(dimethylphosphoryl)-2-methylpyrido[2,3-d]pyrimidin-4-yl]amino}ethyl]-2-fluorophenyl}-1,1-difluoro-2-methylpropan-2-ol], for which the IC50 is 0.00978 µM. Regarding `Cc1nc(N[C@H](C)c2cccc(C(F)(F)C(C)(C)O)c2F)c2cc(P(=O)(C(C)C)C(C)C)cnc2n1` [Example 15, 1-{3-[(1R)-1-({6-[di(propan-2-yl)phosphoryl]-2-methylpyrido[2,3-d]pyrimidin-4-yl}amino)ethyl]-2-fluorophenyl}-1,1-difluoro-2-methylpropan-2-ol], the IC50 was determined as 0.0471 µM.

Take `Cc1nc(N[C@H](C)c2cccc(C(F)(F)C(C)(C)O)c2F)c2cc(P3(=O)CCCC3)cnc2n1` [Example 16, 1-[4-({(1R)-1-[3-(1,1-difluoro-2-hydroxy-2-methylpropyl)-2-fluorophenyl]ethyl}amino)-2-methylpyrido[2,3-d]pyrimidin-6-yl]-1lambda^5-phospholan-1-one]: the IC50 is 0.0106 µM. Turning to `Cc1nc(N[C@H](C)c2cccc(C(F)(F)F)c2C)c2cc(P(C)(C)=O)c(C)nc2n1` [Example 17, 6-(dimethylphosphoryl)-2,7-dimethyl-N-{(1R)-1-[2-methyl-3-(trifluoromethyl)phenyl]ethyl}pyrido[2,3-d]pyrimidin-4-amine], the IC50 is 0.0106 µM. The same measure for `Cc1nc(N[C@H](C)c2cccc(C(F)F)c2F)c2cc(P(C)(C)=O)c(C)nc2n1` [Example 18, N-{(1R)-1-[3-(difluoromethyl)-2-fluorophenyl]ethyl}-6-(dimethylphosphoryl)-2,7-dimethylpyrido[2,3-d]pyrimidin-4-amine]: 0.0277 µM.

On to `Cc1nc(N[C@H](C)c2cccc(C(F)(F)C(C)(C)O)c2F)c2cc(P(C)(C)=O)c(C)nc2n1` [Example 19, 1-{3-[(1R)-1-{[6-(dimethylphosphoryl)-2,7-dimethylpyrido[2,3-d]pyrimidin-4-yl]amino}ethyl]-2-fluorophenyl}-1,1-difluoro-2-methylpropan-2-ol], for which the IC50 came to 0.0143 µM.

With `Cc1nc(N[C@H](C)c2cccc(C(F)(F)C(C)(C)O)c2F)c2cc(P3(=O)CCCC3)c(C)nc2n1` [Example 20, 1-[4-({(1R)-1-[3-(1,1-difluoro-2-hydroxy-2-methylpropyl)-2-fluorophenyl]ethyl}amino)-2,7-dimethylpyrido[2,3-d]pyrimidin-6-yl]-1lambda^5-phospholan-1-one], the IC50 stood at 0.00721 µM. The same measure for `Cc1nc(N[C@H](C)c2cccc(C(F)(F)C(C)(C)O)c2F)c2cc(P(=O)(C(C)C)C(C)C)c(C)nc2n1` [Example 21, 1-{3-[(1R)-1-({6-[di(propan-2-yl)phosphoryl]-2,7-dimethylpyrido[2,3-d]pyrimidin-4-yl}amino)ethyl]-2-fluorophenyl}-1,1-difluoro-2-methylpropan-2-ol]: 0.121 µM; for `Cc1nc(N[C@H](C)c2cccc(C(F)(F)F)c2C)c2cc(P(C)(C)=O)c(C(F)(F)F)nc2n1` [Example 22, 6-(dimethylphosphoryl)-2-methyl-N-{(1R)-1-[2-methyl-3-(trifluoromethyl)phenyl]ethyl}-7-(trifluoromethyl)pyrido[2,3-d]pyrimidin-4-amine]: 0.0187 µM. The same measure for `Cc1nc(N[C@H](C)c2cccc(C(F)(F)C(C)(C)O)c2F)c2cc(P(C)(C)=O)nc(O)c2n1` [Example 26, 4-({(1R)-1-[3-(1,1-difluoro-2-hydroxy-2-methylpropyl)-2-fluorophenyl]ethyl}amino)-6-(dimethylphosphoryl)-2-methylpyrido[3,4-d]pyrimidin-8-ol]: 0.00918 µM; for `CC(=O)N1CCP(=O)(c2cc3c(N[C@H](C)c4cccc(C(F)(F)F)c4C)nc(C)nc3c(O)n2)CC1` [Example 30, 1-acetyl-4-[8-hydroxy-2-methyl-4-({(1R)-1-[2-methyl-3-(trifluoromethyl)phenyl]ethyl}amino)pyrido[3,4-d]pyrimidin-6-yl]-1,4lambda^5-azaphosphinan-4-one]: 1.36 µM. Take `Cc1nc(N[C@H](C)c2cccc(C(F)(F)F)c2C)c2cc(P3(=O)CCN(C=O)CC3)ncc2n1` [Example 31, 4-[2-methyl-4-({(1R)-1-[2-methyl-3-(trifluoromethyl)phenyl]ethyl}amino)pyrido[3,4-d]pyrimidin-6-yl]-4-oxo-1,4lambda^5-azaphosphinane-1-carbaldehyde]: the concentration for half-maximal inhibition (IC50) stood at 0.00637 µM. For `CC(=S)N1CCP(=O)(c2cc3c(N[C@H](C)c4cccc(C(F)(F)F)c4C)nc(C)nc3cn2)CC1` [Example 32, 1-ethanethioyl-4-[2-methyl-4-({(1R)-1-[2-methyl-3-(trifluoromethyl)phenyl]ethyl}amino)pyrido[3,4-d]pyrimidin-6-yl]-1,4lambda^5-azaphosphinan-4-one], the IC50 was 0.0122 µM. For the compound `Cc1nc(N[C@H](C)c2cccc(C(F)(F)CO)c2F)c2cc(P(C)(C)=O)ccc2n1` [Example 33, 2-{3-[(1R)-1-{[6-(dimethylphosphoryl)-2-methylquinazolin-4-yl]amino}ethyl]-2-fluorophenyl}-2,2-difluoroethan-1-ol], the IC50 was determined as 0.00706 µM. `CC(=O)N1CCP(=O)(c2cc3c(N[C@H](C)c4cccc(C(F)(F)F)c4C)nc(C)nc3c(CO)n2)CC1` [Example 34, 1-acetyl-4-[8-(hydroxymethyl)-2-methyl-4-({(1R)-1-[2-methyl-3-(trifluoromethyl)phenyl]ethyl}amino)pyrido[3,4-d]pyrimidin-6-yl]-1,4lambda^5-azaphosphinan-4-one]: the IC50 amounted to 0.0728 µM.

`CC(=O)N1CCP(=O)(c2cc3c(N[C@H](C)c4cccc(C(F)(F)F)c4C)nc(C)nc3c(C3CC3)n2)CC1` [Example 35, 1-acetyl-4-[8-cyclopropyl-2-methyl-4-({(1R)-1-[2-methyl-3-(trifluoromethyl)phenyl]ethyl}amino)pyrido[3,4-d]pyrimidin-6-yl]-1,4lambda^5-azaphosphinan-4-one]: the IC50 turned out to be 0.0215 µM.
